Laboratory results reported in the CheMixHub ionic liquid set.

Assay: xn = mol fraction of the nth substance listed

CCCCCC(=O)O.CCCCCC(=O)[O-].CC[NH+](CC)CCO + CCCC[n+]1ccn(C)c1.COP(=O)([O-])OC
101 kPa
Details	viscosity [mPa·s]
278.15 K, x1 = 0.2213	768
278.15 K, x1 = 0.6088	295.3
283.15 K, x1 = 0.0684	1280
283.15 K, x1 = 0.4995	242.5
283.15 K, x1 = 0.7258	185.3
288.15 K, x1 = 0.2213	362
288.15 K, x1 = 0.3088	259.7
288.15 K, x1 = 1	100.1
293.15 K, x1 = 0.4995	130.7
293.15 K, x1 = 0.8535	90.5
298.15 K, x1 = 0.2213	190.1
298.15 K, x1 = 0.3088	140.8
303.15 K, x1 = 0.2213	142.4
303.15 K, x1 = 0.6088	68.7
303.15 K, x1 = 1	47.5
308.15 K, x1 = 0.1429	147.9
313.15 K, x1 = 0.0684	157
313.15 K, x1 = 0.3088	65.2
318.15 K, x1 = 0.3966	43.87
318.15 K, x1 = 0.8535	29.04
323.15 K, x1 = 0.3966	35.8
328.15 K, x1 = 0.4995	26.14
328.15 K, x1 = 1	17.75
338.15 K, x1 = 0.0684	48.21
338.15 K, x1 = 0.2213	30.03
338.15 K, x1 = 1	12.81
343.15 K, x1 = 0.0684	39.73
343.15 K, x1 = 0.2213	25.3
343.15 K, x1 = 0.3088	20.61
348.15 K, x1 = 1	9.52
353.15 K, x1 = 0.2213	18.5
353.15 K, x1 = 0.4995	11.83
353.15 K, x1 = 0.7258	10.11
353.15 K, x1 = 1	8.28
358.15 K, x1 = 0.2213	16.02
358.15 K, x1 = 1	7.24
368.15 K, x1 = 0.3966	9.02
373.15 K, x1 = 0.2213	10.88

CCCCCCCCn1cc[n+](C)c1.[Cl-] + CN1CCCC1=O
100 kPa
Details	viscosity [mPa·s]
293.15 K, x2 = 0.3221	787
298.15 K, x2 = 0.3221	541
308.15 K, x2 = 0.7195	14.86
308.15 K, x2 = 0.9085	3.35
318.15 K, x2 = 0.21	324
318.15 K, x2 = 0.5321	43.3
318.15 K, x2 = 0.8143	5.54
323.15 K, x2 = 0.21	244
323.15 K, x2 = 0.8143	4.96
328.15 K, x2 = 0.21	185

CCCC[P+](CCCC)(CCCC)CCCC.F[B-](F)(F)F + CC#N + C1CCOC1
298.15 K, 100 kPa
Details	viscosity [mPa·s]
x1 = 0.0005747, x2 = 0.84	0.377
x1 = 0.0006326, x2 = 0.6368	0.408
x1 = 0.000709, x2 = 0.369	0.437
x1 = 0.0008641, x2 = 0.8398	0.381
x1 = 0.0009513, x2 = 0.6366	0.412
x1 = 0.001066, x2 = 0.3689	0.442
x1 = 0.001153, x2 = 0.8395	0.384
x1 = 0.00127, x2 = 0.6364	0.416
x1 = 0.001429, x2 = 0.3688	0.447
x1 = 0.001442, x2 = 0.8393	0.388
x1 = 0.001588, x2 = 0.6362	0.42
x1 = 0.001736, x2 = 0.839	0.392
x1 = 0.001786, x2 = 0.3686	0.451
x1 = 0.001911, x2 = 0.636	0.424
x1 = 0.002029, x2 = 0.8388	0.396
x1 = 0.002142, x2 = 0.3685	0.456
x1 = 0.002229, x2 = 0.6358	0.429
x1 = 0.002504, x2 = 0.3684	0.461

CCCCCCCCCCCCCCCC[N+](C)(C)C.[Br-] + OC[C@@H](O)[C@H](O)[C@@H](O)CO + O
viscosity [mPa·s], 100 kPa
Details	298.15 K	308.15 K	318.15 K
x1 = 7.19e-06, x2 = 0.002032	0.942	0.778	0.646
x1 = 7.19e-06, x2 = 0.002472	0.952	0.785	0.652
x1 = 7.19e-06, x2 = 0.002816	0.96	0.791	0.657
x1 = 7.2e-06, x2 = 0.0009831	0.918	0.759	0.631
x1 = 7.2e-06, x2 = 0.001215	0.923	0.763	0.634
x1 = 7.2e-06, x2 = 0.00156	0.931	0.769	0.639
x1 = 7.21e-06, x2 = 0	0.896	0.742	0.617
x1 = 1.437e-05, x2 = 0.002971	0.97	0.801	0.664
x1 = 1.438e-05, x2 = 0.002331	0.955	0.789	0.654
x1 = 1.439e-05, x2 = 0.001497	0.935	0.772	0.641
x1 = 1.439e-05, x2 = 0.002025	0.947	0.783	0.649
x1 = 1.44e-05, x2 = 0.0008555	0.919	0.76	0.631
x1 = 1.44e-05, x2 = 0.001291	0.929	0.768	0.638
x1 = 1.442e-05, x2 = 0	0.898	0.744	0.617
x1 = 2.156e-05, x2 = 0.002894	0.973	0.804	0.666
x1 = 2.157e-05, x2 = 0.002365	0.96	0.793	0.657
x1 = 2.158e-05, x2 = 0.002035	0.951	0.786	0.651
x1 = 2.159e-05, x2 = 0.001618	0.941	0.778	0.644
x1 = 2.16e-05, x2 = 0.0009365	0.924	0.764	0.633
x1 = 2.16e-05, x2 = 0.001242	0.931	0.77	0.638
x1 = 2.162e-05, x2 = 0	0.9	0.745	0.617

CCCCn1cc[n+](C)c1C.C[C@@H](O)[C@H](N)C(=O)[O-] + O
100 kPa
Details	viscosity [mPa·s]
288.15 K, x1 = 0.4927	331
293.15 K, x1 = 0.2985	102
293.15 K, x1 = 0.7003	447
298.15 K, x1 = 0.7003	307
298.15 K, x1 = 0.8001	402
308.15 K, x1 = 0.1919	24.8
308.15 K, x1 = 0.4004	63
308.15 K, x1 = 0.599	122
308.15 K, x1 = 0.8001	199
313.15 K, x1 = 0.2985	26.1
313.15 K, x1 = 0.599	78
318.15 K, x1 = 0.2985	21.5
318.15 K, x1 = 0.4004	33.1
318.15 K, x1 = 0.4927	45.9
318.15 K, x1 = 0.7003	77
318.15 K, x1 = 0.8001	92
